Measured values reported in the NIST ThermoML archive (doi:10.1016/j.jct.2018.08.004).
± gives the expanded uncertainty stated by the source.

Experiment: xn = mol fraction of the nth substance listed
Conditions: for surface tension liquid-gas: Maximal bubble pressure; for mass density: 100 kPa, Liquid, Vibrating tube method

CCCC[n+]1ccccc1.N#C[N-]C#N [1-butylpyridinium dicyanamide] + CC(C)O
Conditions	mass density [kg/m3]	surface tension liquid-gas [mN/m]
288.15 K, x1 = 0.1008	857.57 ± 2.1	23.3 ± 0.8
288.15 K, x1 = 0.2007	906.69 ± 2.3	25.7 ± 0.9
288.15 K, x1 = 0.3005	944.56 ± 2.4	26.9 ± 0.9
288.15 K, x1 = 0.3999	974.5 ± 2.5	28.5 ± 1
288.15 K, x1 = 0.5005	999.39 ± 2.5	30.5 ± 1
288.15 K, x1 = 0.5998	1019.53 ± 2.6	33.2 ± 1.1
288.15 K, x1 = 0.7004	1036.66 ± 2.6	35.9 ± 1.2
288.15 K, x1 = 0.7972	1050.66 ± 2.6	39.9 ± 1.4
288.15 K, x1 = 0.9032	1063.81 ± 2.7	45.5 ± 1.5
288.15 K, x1 = 1	1074.97 ± 2.7	56.3 ± 1.9
293.15 K, x1 = 0.1008	853.79 ± 2.1	22.8 ± 0.8
293.15 K, x1 = 0.2007	903.11 ± 2.3	25.2 ± 0.9
293.15 K, x1 = 0.3005	941.13 ± 2.4	26.7 ± 0.9
293.15 K, x1 = 0.3999	971.16 ± 2.4	28 ± 0.9
293.15 K, x1 = 0.5005	996.12 ± 2.5	30.2 ± 1
293.15 K, x1 = 0.5998	1016.32 ± 2.5	32.9 ± 1.1
293.15 K, x1 = 0.7004	1033.49 ± 2.6	35.7 ± 1.2
293.15 K, x1 = 0.7972	1047.51 ± 2.6	39.6 ± 1.3
293.15 K, x1 = 0.9032	1060.69 ± 2.7	45.2 ± 1.5
293.15 K, x1 = 1	1071.9 ± 2.7	56 ± 1.9
298.15 K, x1 = 0.1008	849.98 ± 2.1	22.3 ± 0.8
298.15 K, x1 = 0.2007	899.51 ± 2.3	24.8 ± 0.8
298.15 K, x1 = 0.3005	937.68 ± 2.4	26.2 ± 0.9
298.15 K, x1 = 0.3999	967.82 ± 2.4	27.8 ± 0.9
298.15 K, x1 = 0.5005	992.86 ± 2.5	29.9 ± 1
298.15 K, x1 = 0.5998	1013.12 ± 2.5	32.5 ± 1.1
298.15 K, x1 = 0.7004	1030.32 ± 2.6	35.3 ± 1.2
298.15 K, x1 = 0.7972	1044.37 ± 2.6	39.3 ± 1.3
298.15 K, x1 = 0.9032	1057.57 ± 2.6	44.9 ± 1.5
298.15 K, x1 = 1	1068.83 ± 2.7	55.7 ± 1.9
303.15 K, x1 = 0.1008	846.14 ± 2.1	22 ± 0.7
303.15 K, x1 = 0.2007	895.9 ± 2.2	24.5 ± 0.8
303.15 K, x1 = 0.3005	934.24 ± 2.3	25.9 ± 0.9
303.15 K, x1 = 0.3999	964.49 ± 2.4	27.5 ± 0.9
303.15 K, x1 = 0.5005	989.61 ± 2.5	29.6 ± 1
303.15 K, x1 = 0.5998	1009.92 ± 2.5	32.3 ± 1.1
303.15 K, x1 = 0.7004	1027.16 ± 2.6	35.1 ± 1.2
303.15 K, x1 = 0.7972	1041.24 ± 2.6	39.1 ± 1.3
303.15 K, x1 = 0.9032	1054.46 ± 2.6	44.7 ± 1.5
303.15 K, x1 = 1	1065.76 ± 2.7	55.5 ± 1.9
308.15 K, x1 = 0.1008	842.28 ± 2.1	21.6 ± 0.7
308.15 K, x1 = 0.2007	892.3 ± 2.2	24.1 ± 0.8
308.15 K, x1 = 0.3005	930.8 ± 2.3	25.5 ± 0.9
308.15 K, x1 = 0.3999	961.18 ± 2.4	27.1 ± 0.9
308.15 K, x1 = 0.5005	986.37 ± 2.5	29.3 ± 1
308.15 K, x1 = 0.5998	1006.74 ± 2.5	32 ± 1.1
308.15 K, x1 = 0.7004	1024.02 ± 2.6	34.8 ± 1.2
308.15 K, x1 = 0.7972	1038.13 ± 2.6	38.8 ± 1.3
308.15 K, x1 = 0.9032	1051.37 ± 2.6	44.4 ± 1.5
308.15 K, x1 = 1	1062.7 ± 2.7	55.2 ± 1.9
313.15 K, x1 = 0.1008	838.39 ± 2.1	21.3 ± 0.7
313.15 K, x1 = 0.2007	888.69 ± 2.2	23.8 ± 0.8
313.15 K, x1 = 0.3005	927.36 ± 2.3	25.2 ± 0.9
313.15 K, x1 = 0.3999	957.86 ± 2.4	26.8 ± 0.9
313.15 K, x1 = 0.5005	983.14 ± 2.5	29 ± 1
313.15 K, x1 = 0.5998	1003.56 ± 2.5	31.7 ± 1.1
313.15 K, x1 = 0.7004	1020.89 ± 2.6	34.5 ± 1.2
313.15 K, x1 = 0.7972	1035.03 ± 2.6	38.5 ± 1.3
313.15 K, x1 = 0.9032	1048.3 ± 2.6	44.1 ± 1.5
313.15 K, x1 = 1	1059.66 ± 2.7	54.9 ± 1.9
318.15 K, x1 = 0.1008	834.48 ± 2.1	20.8 ± 0.7
318.15 K, x1 = 0.2007	885.06 ± 2.2	23.4 ± 0.8
318.15 K, x1 = 0.3005	923.93 ± 2.3	24.9 ± 0.8
318.15 K, x1 = 0.3999	954.55 ± 2.4	26.5 ± 0.9
318.15 K, x1 = 0.5005	979.93 ± 2.5	28.6 ± 1
318.15 K, x1 = 0.5998	1000.4 ± 2.5	31.4 ± 1.1
318.15 K, x1 = 0.7004	1017.77 ± 2.5	34.2 ± 1.2
318.15 K, x1 = 0.7972	1031.94 ± 2.6	38.2 ± 1.3
318.15 K, x1 = 0.9032	1045.24 ± 2.6	43.8 ± 1.5
318.15 K, x1 = 1	1056.64 ± 2.6	54.5 ± 1.8
